target: T1, human PTH1 receptor (Homo sapiens, UniProt Q03431); assay: In vitro cAMP signal activity in HKRK-B7 cells (LLC-PK1 cells overexpressing the human PTH1 receptor); assay type: cell-based; settings: HKRK-B7 cells; compound at 1×10^−3 M; cAMP produced as percentage of that produced by hPTH(1-34) at 100 nM
T1 sequence (Q03431 27-593): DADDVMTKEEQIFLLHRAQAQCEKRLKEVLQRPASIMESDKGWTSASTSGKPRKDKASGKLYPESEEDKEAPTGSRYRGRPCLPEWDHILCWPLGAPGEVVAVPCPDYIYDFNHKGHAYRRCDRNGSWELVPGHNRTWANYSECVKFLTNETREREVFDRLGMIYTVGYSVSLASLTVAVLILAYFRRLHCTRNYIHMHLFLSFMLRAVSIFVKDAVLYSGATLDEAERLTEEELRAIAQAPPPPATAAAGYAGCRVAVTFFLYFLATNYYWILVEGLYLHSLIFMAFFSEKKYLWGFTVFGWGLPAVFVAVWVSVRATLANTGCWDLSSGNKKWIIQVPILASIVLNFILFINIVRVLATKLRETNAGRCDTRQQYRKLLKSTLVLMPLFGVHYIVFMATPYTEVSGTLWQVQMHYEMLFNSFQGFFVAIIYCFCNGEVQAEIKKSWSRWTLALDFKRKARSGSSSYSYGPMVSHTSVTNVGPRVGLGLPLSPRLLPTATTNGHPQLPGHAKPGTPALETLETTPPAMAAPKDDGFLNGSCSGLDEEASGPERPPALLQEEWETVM

SMILES	cAMP production activity (%)
Cc1cc(CN2C(=O)NC(C)(C)C2=O)cc(C)c1/C=C/S(=O)(=O)N1CCC2(CC1)N=C(C1CCC(C)CC1)NC2=O (stereo not shown) [Compound 519, 3-(3,5-dimethyl-4-{(E)-2-[2-(4-methyl-cyclohexyl)-4-oxo-1,3,8-triaza-spiro[4.5]dec-1-ene-8-sulfonyl]-vinyl}-benzyl)-5,5-dimethyl-imidazolidine-2,4-dione]	72
Cc1cc(CN2CCCC2=O)cc(C)c1/C=C/S(=O)(=O)N1CCC2(CC1)N=C(C1CCC(C)CC1)NC2=O (stereo not shown) [Compound 520, 8-{(E)-2-[2,6-dimethyl-4-(2-oxo-pyrrolidin-1-ylmethyl)-phenyl]-ethenesulfonyl}-2-(4-methyl-cyclohexyl)-1,3,8-triaza-spiro[4.5]dec-1-en-4-one]	28
Cc1cc(CN2C(=O)CCC2=O)cc(C)c1/C=C/S(=O)(=O)N1CCC2(CC1)N=C(C1CCC(C)CC1)NC2=O (stereo not shown) [Compound 521, 1-(3,5-dimethyl-4-{(E)-2-[2-(4-methyl-cyclohexyl)-4-oxo-1,3,8-triaza-spiro[4.5]dec-1-ene-8-sulfonyl]-vinyl}-benzyl)-pyrrolidine-2,5-dione]	55
CC(=O)NCc1cc(C)c(/C=C/S(=O)(=O)N2CCC3(CC2)N=C(C2CCC(C)CC2)NC3=O)c(C)c1 (stereo not shown) [Compound 522, N-(3,5-dimethyl-4-{(E)-2-[2-(4-methyl-cyclohexyl)-4-oxo-1,3,8-triaza-spiro[4.5]dec-1-ene-8-sulfonyl]-vinyl}-benzyl)-acetamide]	82
CC(=O)N(C)c1cc(F)c(/C=C/S(=O)(=O)N2CCC3(CC2)N=C(C2CCC(C)CC2)NC3=O)c(F)c1 (stereo not shown) [Compound 523, N-(3,5-difluoro-4-{(E)-2-[2-(4-methyl-cyclohexyl)-4-oxo-1,3,8-triaza-spiro[4.5]dec-1-ene-8-sulfonyl]-vinyl}-phenyl)-N-methyl-acetamide]	89
O=C1NC(c2cccc(C(F)(F)F)c2)=NC12CCN(S(=O)(=O)/C=C/c1cccc3c1ccn3C[C@H](O)CO)CC2 [Compound 524, 8-{(E)-2-[1-((S)-2,3-dihydroxy-propyl)-1H-indol-4-yl]-ethenesulfonyl}-2-(3-trifluoromethyl-phenyl)-1,3,8-triaza-spiro[4.5]dec-1-en-4-one]	90
Cc1cc(N2C(=O)C[C@H](NC(=O)OC(C)(C)C)C2=O)ccc1/C=C/S(=O)(=O)N1CCC2(CC1)N=C(c1cccc(C(F)(F)F)c1)NC2=O [Compound 525, [(S)-1-(3-methyl-4-{(E)-2-[4-oxo-2-(3-trifluoromethyl-phenyl)-1,3,8-triaza-spiro[4.5]dec-1-ene-8-sulfonyl]-vinyl}-phenyl)-2,5-dioxo-pyrrolidin-3-yl]-carbamic acid tert-butyl ester]	14
O=C1NC(c2cccc(OC(F)(F)F)c2)=NC12CCN(S(=O)(=O)/C=C/c1cccc3c1ccn3C[C@H](O)CO)CC2 [Compound 526, 8-{(E)-2-[1-((S)-2,3-dihydroxy-propyl)-1H-indol-4-yl]-ethenesulfonyl}-2-(3-trifluoromethoxy-phenyl)-1,3,8-triaza-spiro[4.5]dec-1-en-4-one]	83
Cc1cc(C(=O)N2CCN(C)CC2)ccc1/C=C/S(=O)(=O)N1CCC2(CC1)N=C(c1cccc(OC(F)(F)F)c1)NC2=O [Compound 527, 8-{(E)-2-[2-methyl-4-(4-methyl-piperazine-1-carbonyl)-phenyl]-ethenesulfonyl}-2-(3-trifluoromethoxy-phenyl)-1,3,8-triaza-spiro[4.5]dec-1-en-4-one]	93
Cc1cc(NCC(=O)N2CCN(C)CC2)ccc1/C=C/S(=O)(=O)N1CCC2(CC1)N=C(c1cccc(OC(F)(F)F)c1)NC2=O [Compound 528, 8-((E)-2-{2-methyl-4-[2-(4-methyl-piperazin-1-yl)-2-oxo-ethylamino]-phenyl}-ethenesulfonyl)-2-(3-trifluoromethoxy-phenyl)-1,3,8-triaza-spiro[4.5]dec-1-en-4-one]	55
Cc1cc(NCC(N)=O)ccc1/C=C/S(=O)(=O)N1CCC2(CC1)N=C(c1cccc(OC(F)(F)F)c1)NC2=O [Compound 529, 2-(3-methyl-4-{(E)-2-[4-oxo-2-(3-trifluoromethoxy-phenyl)-1,3,8-triaza-spiro[4.5]dec-1-ene-8-sulfonyl]-vinyl}-phenylamino)-acetamide]	68
Cc1cc(S(=O)(=O)Nc2ccncc2)ccc1/C=C/S(=O)(=O)N1CCC2(CC1)N=C(c1cccc(OC(F)(F)F)c1)NC2=O [Compound 530, 3-methyl-4-{(E)-2-[4-oxo-2-(3-trifluoromethoxy-phenyl)-1,3,8-triaza-spiro[4.5]dec-1-ene-8-sulfonyl]-vinyl}-N-pyridin-4-yl-benzenesulfonamide]	18
Cc1cc(OCCC(O)CO)ccc1/C=C/S(=O)(=O)N1CCC2(CC1)N=C(c1cccc(OC(F)(F)F)c1)NC2=O (stereo not shown) [Compound 531, 8-{(E)-2-[4-(3,4-dihydroxy-butoxy)-2-methyl-phenyl]-ethenesulfonyl}-2-(3-trifluoromethoxy-phenyl)-1,3,8-triaza-spiro[4.5]dec-1-en-4-one]	69
Cc1cc(N(CCO)C(=O)NCCO)cc(C)c1/C=C/S(=O)(=O)N1CCC2(CC1)N=C(c1cccc(OC(F)(F)F)c1)NC2=O [Compound 532, 1-(3,5-dimethyl-4-{(E)-2-[4-oxo-2-(3-trifluoromethoxy-phenyl)-1,3,8-triaza-spiro[4.5]dec-1-ene-8-sulfonyl]-vinyl}-phenyl)-1,3-bis-(2-hydroxy-ethyl)-urea]	80
Cc1cc(N(CCO)C(=O)N(C)CCO)cc(C)c1/C=C/S(=O)(=O)N1CCC2(CC1)N=C(c1cccc(OC(F)(F)F)c1)NC2=O [Compound 533, 1-(3,5-dimethyl-4-{(E)-2-[4-oxo-2-(3-trifluoromethoxy-phenyl)-1,3,8-triaza-spiro[4.5]dec-1-ene-8-sulfonyl]-vinyl}-phenyl)-1,3-bis-(2-hydroxy-ethyl)-3-methyl-urea]	69
Cc1cc(N(C2CCOCC2)S(C)(=O)=O)cc(C)c1/C=C/S(=O)(=O)N1CCC2(CC1)N=C(c1cccc(OC(F)(F)F)c1)NC2=O [Compound 534, N-(3,5-dimethyl-4-{(E)-2-[4-oxo-2-(3-trifluoromethoxy-phenyl)-1,3,8-triaza-spiro[4.5]dec-1-ene-8-sulfonyl]-vinyl}-phenyl)-N-(tetrahydro-pyran-4-yl)-methane sulfonamide]	39
Cc1cc(C(=O)N2CCC(O)CC2)cc(C)c1/C=C/S(=O)(=O)N1CCC2(CC1)N=C(c1ccc(F)c(C(F)(F)F)c1)NC2=O [Compound 535, 2-(4-fluoro-3-trifluoromethyl-phenyl)-8-{(E)-2-[4-(4-hydroxy-piperidine-1-carbonyl)-2,6-dimethyl-phenyl]-ethenesulfonyl}-1,3,8-triaza-spiro[4.5]dec-1-en-4-one]	83
CCCCCCCCCC1=NC2(CCN(S(=O)(=O)/C=C/c3ccc(N4C(=O)CNC4=O)cc3C)CC2)C(=O)N1 [Compound 536, 3-{3-Methyl-4-[(E)-2-(2-nonyl-4-oxo-1,3,8-triaza-spiro[4.5]dec-1-ene-8-sulfonyl)-vinyl]-phenyl}-imidazolidine-2,4-dione]	72
CCCCCCCCCC1=NC2(CCN(S(=O)(=O)/C=C/c3ccc(N4C(=O)CNC4=O)cc3C(F)(F)F)CC2)C(=O)N1 [Compound 537, 3-{4-[(E)-2-(2-nonyl-4-oxo-1,3,8-triaza-spiro[4.5]dec-1-ene-8-sulfonyl)-vinyl]-3-trifluoromethyl-phenyl}-imidazolidine-2,4-dione]	3.9
CCCCCCCCCC1=NC2(CCN(S(=O)(=O)/C=C/c3ccc(N4C(=O)COCC4=O)cc3C)CC2)C(=O)N1 [Compound 538, 4-{3-methyl-4-[(E)-2-(2-nonyl-4-oxo-1,3,8-triaza-spiro[4.5]dec-1-ene-8-sulfonyl)-vinyl]-phenyl}-morpholine-3,5-dione]	133
CCCCCCCCCC1=NC2(CCN(S(=O)(=O)/C=C/c3c(C)cc(N4C(=O)CNC4=O)cc3C)CC2)C(=O)N1 [Compound 539, 3-{3,5-dimethyl-4-[(E)-2-(2-nonyl-4-oxo-1,3,8-triaza-spiro[4.5]dec-1-ene-8-sulfonyl)-vinyl]-phenyl}-imidazolidine-2,4-dione]	80
Cc1cc(N2C(=O)NC(C)(C)C2=O)ccc1/C=C/S(=O)(=O)N1CCC2(CC1)N=C(C1CCC(CCC(F)(F)F)CC1)NC2=O (stereo not shown) [Compound 540, 5,5-Dimethyl-3-[3-methyl-4-((E)-2-{4-oxo-2-[4-(3,3,3-trifluoro-propyl)-cyclohexyl]-1,3,8-triaza-spiro[4.5]dec-1-ene-8-sulfonyl}-vinyl)-phenyl]-imidazolidine-2,4-dione]	22

— patent publication US9169254B2, “Spiroimidazolone derivative” (Chugai Seiyaku Kabushiki Kaisha, priority 2009, dated 2015)
